PMC5540490, “Plasma concentrations of caspofungin in a critically ill patient with morbid obesity” (Critical Care, 2017)
Read-outs that look alike come from different tables or passages of the source.

Tests used:
[1] = Clinical course and tolerability of caspofungin treatment in the patient; assay type: in vivo, human; conditions: 100 mg/day for 14 days; one patient
Excerpt: (§1) A morbidly obese person (BMI = 50 kg/m^2) was admitted to our ICU after surgical treatment of anastomotic leak in the postoperative period of elective laparoscopic bariatric surgery. The patient was in septic shock, with Candida multicolonization and other risk factors of invasive candidiasis. We decided to start antimicrobial treatment, including meropenem, linezolid and caspofungin. With the intention of maximizing the potential effectiveness of antifungal treatment, caspofungin at a dose of 100 mg/day was chosen. The caspofungin dose was calculated using a population pharmacokinetic model. Target AUC/MIC was set at 860 and therefore AUC values above 107 mg*h/L were necessary assuming MIC = 0.125 mg/L [2]. […] The manufacturer recommends caspofungin dose reduction when AUC values are above 210 mg*h/L and, accordingly, drug exposure was considered safe.

[2] = Plasma/serum concentrations of caspofungin in a critically ill patient with morbid obesity; assay type: in vivo; conditions: male, human, plasma, 100 mg/day; for Cmax: read-out: Cpeak
Excerpt: The aim of the study was to describe the pharmacokinetic behaviour of caspofungin in a critically ill patient with morbid obesity who received doses of caspofungin higher than labelled doses.
as §1

[3] = three days later, one morbidly obese ICU patient

Question: For `CC[C@H](C)C[C@H](C)CCCCCCCCC(=O)N[C@H]1C[C@@H](O)[C@@H](NCCN)NC(=O)[C@@H]2[C@@H](O)CCN2C(=O)[C@H]([C@H](O)CCN)NC(=O)[C@H]([C@H](O)[C@@H](O)c2ccc(O)cc2)NC(=O)[C@@H]2C[C@@H](O)CN2C(=O)[C@H]([C@@H](C)O)NC1=O` [caspofungin], which “Adverse effects related to the drug” value [1] is on record?
Answer: Its value is “without any adverse effects”.

Question: And the AUC ([2]; after the first dose, one morbidly obese ICU patient)?
Answer: The AUC was 116 µg·h/mL.

Question: And the Cmax ([2]; after the first dose, one morbidly obese ICU patient (BMI 50 kg/m^2) in septic shock)?
Answer: Its Cmax is 4510 ng/mL.

Question: And the AUC [2, 3]?
Answer: The AUC was 140 µg·h/mL.

Question: And the Cmax [2, 3]?
Answer: The Cmax was 5970 ng/mL.

Question: And the level at 72 h ([2]; three days later, one morbidly obese ICU patient, read-out: Ctrough)?
Answer: Its level at 72 h is 1760 ng/mL.
